Here are results for 29 compounds from ChEMBL document CHEMBL5291721, “A preclinical secondary pharmacology resource illuminates target-adverse drug reaction associations of marketed drugs” (Nat Commun, 2023).

Assay [1] concerns the target T1, Muscarinic acetylcholine receptor M1 (Homo sapiens, UniProt P11229).
T1 sequence (P11229 whole entry): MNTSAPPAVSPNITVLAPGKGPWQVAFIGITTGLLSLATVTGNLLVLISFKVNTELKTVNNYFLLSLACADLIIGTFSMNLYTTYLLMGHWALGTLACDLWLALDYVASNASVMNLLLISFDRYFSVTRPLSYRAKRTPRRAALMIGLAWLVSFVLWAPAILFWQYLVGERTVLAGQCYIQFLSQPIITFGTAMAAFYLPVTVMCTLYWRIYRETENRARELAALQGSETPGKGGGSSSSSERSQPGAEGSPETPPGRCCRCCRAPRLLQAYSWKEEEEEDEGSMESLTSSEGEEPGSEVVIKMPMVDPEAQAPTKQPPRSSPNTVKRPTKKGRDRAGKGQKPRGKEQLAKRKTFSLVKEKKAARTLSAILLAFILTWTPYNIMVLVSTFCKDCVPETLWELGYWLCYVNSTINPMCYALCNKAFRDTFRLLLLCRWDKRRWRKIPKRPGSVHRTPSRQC
In kind it is functional, cell-based.

In assay [2] the target is T1, Muscarinic acetylcholine receptor M1. The assay is classed as functional, cell-based. This is another data set of the same source.
Another assay has as its target Mu-type opioid receptor (Homo sapiens, UniProt P35372).
Assay [3] addresses Prostaglandin G/H synthase 1 (Homo sapiens, UniProt P23219). In kind it is functional.

The structures appear in SMILES notation. A value given as a limit tells only on which side of the number the result lay.
Further: assay procedure not described here.

Prostaglandin G/H synthase 1, sequence (P23219 whole entry): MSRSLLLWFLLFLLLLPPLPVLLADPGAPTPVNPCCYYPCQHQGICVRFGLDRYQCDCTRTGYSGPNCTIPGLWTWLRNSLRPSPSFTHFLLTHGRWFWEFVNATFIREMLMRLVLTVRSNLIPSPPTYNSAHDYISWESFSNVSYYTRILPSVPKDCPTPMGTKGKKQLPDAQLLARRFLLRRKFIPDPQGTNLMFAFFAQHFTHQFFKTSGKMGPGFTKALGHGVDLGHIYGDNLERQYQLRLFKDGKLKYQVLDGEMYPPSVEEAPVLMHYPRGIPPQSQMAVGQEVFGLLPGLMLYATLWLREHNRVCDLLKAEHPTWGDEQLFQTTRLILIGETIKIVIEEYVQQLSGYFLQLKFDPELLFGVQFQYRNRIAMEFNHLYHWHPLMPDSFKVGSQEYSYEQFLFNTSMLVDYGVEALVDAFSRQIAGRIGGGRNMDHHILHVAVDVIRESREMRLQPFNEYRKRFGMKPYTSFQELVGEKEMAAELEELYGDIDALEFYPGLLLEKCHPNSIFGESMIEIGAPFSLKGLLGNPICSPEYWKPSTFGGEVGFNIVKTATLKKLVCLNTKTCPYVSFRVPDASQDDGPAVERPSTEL
Mu-type opioid receptor, sequence (P35372 whole entry): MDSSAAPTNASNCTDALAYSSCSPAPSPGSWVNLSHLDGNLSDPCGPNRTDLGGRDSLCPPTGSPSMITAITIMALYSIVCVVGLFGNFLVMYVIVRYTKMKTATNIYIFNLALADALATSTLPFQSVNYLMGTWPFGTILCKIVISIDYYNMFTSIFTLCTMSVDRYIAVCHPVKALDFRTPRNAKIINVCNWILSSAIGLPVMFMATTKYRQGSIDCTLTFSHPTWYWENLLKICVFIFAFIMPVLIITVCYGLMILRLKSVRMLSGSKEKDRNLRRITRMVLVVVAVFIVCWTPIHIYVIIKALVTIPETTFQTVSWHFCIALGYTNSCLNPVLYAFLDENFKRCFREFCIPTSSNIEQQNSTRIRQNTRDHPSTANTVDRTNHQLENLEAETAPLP

What is called AC50 is the concentration giving half of the maximal activity seen. Turning to `COc1cccc(C(=O)CCN[C@@H](C)[C@H](O)c2ccccc2)c1` [OXYFEDRINE], the AC50 in assay [1] was over 30 µM; in assay [2] it was over 30 µM; on Mu-type opioid receptor, 2.7 µM; in assay [3], over 30 µM.

As to `C[C@@H]1C[C@H]2[C@@H]3C[C@H](F)C4=CC(=O)C=C[C@]4(C)[C@H]3[C@@H](O)C[C@]2(C)[C@@]1(O)C(=O)CO` [PARAMETHASONE], the AC50 (in assay [1]; in assay [2]; at Mu-type opioid receptor; in assay [3]) was over 30 µM in each case.

`CC(OCCN1CCCCCC1)(c1ccccc1)c1ccc(Cl)cc1` (stereo unspecified) [SETASTINE]: the AC50 in assay [1] was over 30 µM; in assay [2], 0.493 µM; at Mu-type opioid receptor, 3.66 µM; in assay [3] it was over 30 µM.

Take `Cc1ncc2c(c1O)COC2c1ccc(Cl)cc1` (stereo unspecified) [CICLETANINE]: the AC50 (in assay [1]; in assay [2]; on Mu-type opioid receptor; in assay [3]) was over 30 µM throughout.

In the case of `c1ccc2c(SC3=NCCN3)c[nH]c2c1` [TINAZOLINE], the half-maximal activity concentration (AC50) (in assay [1]; in assay [2]; on Mu-type opioid receptor; in assay [3]) was over 30 µM each time.

For the compound `CC(=O)[C@]1(N)Cc2c(O)c3c(c(O)c2[C@@H](O[C@H]2C[C@H](O)[C@H](O)CO2)C1)C(=O)c1ccccc1C3=O` [AMRUBICIN], the AC50 was 18.4 µM in assay [1], over 3 µM in assay [2], over 30 µM on Mu-type opioid receptor and 3.62 µM in assay [3].

Turning to `CC(COc1ccccc1)NC(C)C(O)c1ccc(O)cc1` (stereo unspecified) [ISOXSUPRINE], the AC50 is over 30 µM in assay [1], over 30 µM in assay [2], 8.69 µM at Mu-type opioid receptor and over 30 µM in assay [3].

As to `Clc1ccc(C(Cn2ccnc2)OCc2csc3c(Cl)cccc23)c(Cl)c1` (stereo unspecified) [SERTACONAZOLE], the AC50 in assay [1] is over 30 µM; in assay [2], 9.44 µM; on Mu-type opioid receptor it was 3.59 µM; in assay [3] it was 7.68 µM.

As for `Cc1ccc(S(=O)(=O)NC(=O)NC2CCCCC2)cc1` [GLYCYCLAMIDE], the AC50 (in assay [1]; in assay [2]; at Mu-type opioid receptor; in assay [3]) was over 30 µM each time.

As to `N#Cc1ccc(Oc2ccc3c(c2)COB3O)cc1` [CRISABOROLE], the AC50 was over 30 µM in assay [1], 13.7 µM in assay [2], over 30 µM on Mu-type opioid receptor and over 30 µM in assay [3].

For the compound `N[C@@H](Cc1ccccc1)C(=O)O` [PHENYLALANINE], the AC50 is over 30 µM in assay [1], over 30 µM in assay [2], over 30 µM on Mu-type opioid receptor and 28 µM in assay [3].

Regarding `O=C(CCC/C=C\C[C@@H]1[C@@H](CC[C@@H](O)CCc2ccccc2)[C@H](O)C[C@@H]1O)OCCCCO[N+](=O)[O-]` [LATANOPROSTENE BUNOD], the AC50 was over 30 µM in assay [1], over 10 µM in assay [2], over 30 µM on Mu-type opioid receptor and over 30 µM in assay [3].

In the case of `COC(=O)C[C@](O)(CCCC(C)(C)O)C(=O)O[C@@H]1C(OC)=C[C@]23CCCN2CCc2cc4c(cc2[C@H]13)OCO4` [OMACETAXINE MEPESUCCINATE], the AC50 in assay [1] was over 30 µM; in assay [2], over 30 µM; on Mu-type opioid receptor, over 30 µM; in assay [3] it was over 10 µM.

Consider `NC(=O)[C@@H]1CC[C@@H]2CN1C(=O)N2OS(=O)(=O)O` [AVIBACTAM], for which the AC50 (in assay [1]; in assay [2]; at Mu-type opioid receptor; in assay [3]) was over 30 µM throughout.

Turning to `CC(=O)[C@H]1CC[C@H]2[C@@H]3C=CC4=CC(=O)CC[C@@]4(C)[C@@H]3CC[C@]12C` [DYDROGESTERONE], the AC50 in assay [1] is over 30 µM; in assay [2], 5.06 µM; at Mu-type opioid receptor, over 30 µM; in assay [3], over 30 µM.

`Cc1cn([C@H]2O[C@@H](CO)[C@H](O)[C@H]2F)c(=O)[nH]c1=O` [CLEVUDINE]: the AC50 (in assay [1]; in assay [2]; at Mu-type opioid receptor; in assay [3]) was over 30 µM in each case.

Take `Cc1oc(=O)oc1COC(=O)[C@@H]1N2C(=O)[C@@H](NC(=O)[C@H](N)c3ccccc3)[C@H]2SC1(C)C` [LENAMPICILLIN]: the AC50 in assay [1] is over 30 µM; in assay [2], 9.21 µM; on Mu-type opioid receptor it was over 30 µM; in assay [3], over 30 µM.

As for `CC(C)(C)NC(=O)N[C@H](C(=O)N1C[C@H]2[C@@H]([C@H]1C(=O)NC(CC1CCC1)C(=O)C(N)=O)C2(C)C)C(C)(C)C` (stereo partly specified) [BOCEPREVIR], the AC50 (in assay [1]; in assay [2]; at Mu-type opioid receptor; in assay [3]) was over 30 µM each time.

Consider `CCCSc1nc(N[C@@H]2C[C@H]2c2ccc(F)c(F)c2)c2nnn([C@@H]3C[C@H](OCCO)[C@@H](O)[C@H]3O)c2n1` [TICAGRELOR], for which the AC50 in assay [1] was over 30 µM; in assay [2], 8.29 µM; at Mu-type opioid receptor, over 30 µM; in assay [3] it was over 30 µM.

As to `CC[N+](C)(CC)CCOC(=O)C(O)(c1ccccc1)C1CCCCC1` (stereo unspecified) [OXYPHENONIUM], the AC50 was over 30 µM in assay [1], 0.003 µM in assay [2], over 30 µM at Mu-type opioid receptor and over 30 µM in assay [3].

As for `O=C(O)[C@@H]1C[C@@H](O)CN1`, the AC50 in assay [1] was over 30 µM; in assay [2], over 30 µM; at Mu-type opioid receptor it was over 10 µM; in assay [3], over 30 µM.

Turning to `CC(=O)O[C@H]1Cc2ccccc2N(C(N)=O)c2ccccc21` [ESLICARBAZEPINE ACETATE], the AC50 (in assay [1]; in assay [2]; on Mu-type opioid receptor; in assay [3]) was over 30 µM in each case.

Consider `COc1cc(C)c2c(Oc3cccc(C(F)(F)F)c3)c(OC)cc(NC(C)CCCN)c2n1` (stereo unspecified) [TAFENOQUINE], for which the AC50 in assay [1] is over 3 µM; in assay [2], over 3 µM; on Mu-type opioid receptor, 20.6 µM; in assay [3], 9.38 µM.

Regarding `CC1(CCN2CCCCC2)C(=O)CCc2ccccc21` (stereo unspecified) [NEPINALONE], the AC50 (in assay [1]; in assay [2]; at Mu-type opioid receptor; in assay [3]) was over 30 µM throughout.

Take `CCC[C@H](N[C@@H](C)C(=O)N1[C@H](C(=O)O)C[C@@H]2CCCC[C@@H]21)C(=O)OCC` [PERINDOPRIL]: the AC50 (in assay [1]; in assay [2]; on Mu-type opioid receptor; in assay [3]) was over 30 µM each time.

With `COc1ccc(OC)c(C(O)C(C)N)c1` (stereo unspecified) [METHOXAMINE], the AC50 (in assay [1]; in assay [2]; at Mu-type opioid receptor; in assay [3]) was over 30 µM throughout.

`CC1(C)S[C@@H]2[C@H](/N=C/N3CCCCCC3)C(=O)N2[C@H]1C(=O)O` [AMDINOCILLIN]: the AC50 was over 30 µM in assay [1], over 30 µM in assay [2], over 30 µM on Mu-type opioid receptor and 14.5 µM in assay [3].

Turning to `CN1CCCN(C(c2ccccc2)c2ccc(Cl)cc2)CC1` (stereo unspecified) [HOMOCHLORCYCLIZINE], the AC50 is over 30 µM in assay [1], 0.12 µM in assay [2], 7.4 µM at Mu-type opioid receptor and over 30 µM in assay [3].

`C[C@H](N[C@@H](CCc1ccccc1)C(=O)O)C(=O)N1Cc2ccccc2C[C@H]1C(=O)O`: the AC50 (in assay [1]; in assay [2]; on Mu-type opioid receptor; in assay [3]) was over 30 µM in each case.
